A short description of data set [1]: Cytotoxicity against mouse L929 cells assessed as decrease in cell viability after 48 hrs by MTT method. Format: toxicity. For orientation: Tetrazolium dyes change colour on reduction, which living cells bring about.
Data set [2] can be described thus: Selectivity index, ratio of CC50 for mouse J774A1 cells to IC50 for Leishmania amazonensis WHOM/BR/75/JOSEFA promastigotes. It counts as functional, J774.A1.
In data set [3] the test system is Leishmania amazonensis. Description: Antileishmanial activity against Leishmania amazonensis WHOM/BR/75/JOSEFA promastigotes after 72 hrs by Neubauer chamber method. Format: functional.
The test system of data set [4] is Leishmania amazonensis. Description: Antileishmanial activity against Leishmania amazonensis WHOM/BR/75/JOSEFA axenic amastigotes after 72 hrs by Neubauer chamber method. It counts as functional.
Data set [5] can be described thus: Cytotoxicity against mouse J774A1 cells assessed as decrease in cell viability after 48 hrs by MTT method. Format: toxicity, J774.A1.
The nature of data set [6]: Selectivity index, ratio of CC50 for mouse J774A1 cells to IC50 for Leishmania amazonensis WHOM/BR/75/JOSEFA axenic amastigotes. Format: functional, J774.A1.
Data set [7] can be described thus: Selectivity index, ratio of CC50 for mouse L929 cells to IC50 for Leishmania amazonensis WHOM/BR/75/JOSEFA axenic amastigotes. Format: functional.
A short description of data set [8]: Selectivity index, ratio of CC50 for mouse L929 cells to IC50 for Leishmania amazonensis WHOM/BR/75/JOSEFA promastigotes. Format: functional.

Structures are written as SMILES.

Take `O=C(N/N=C/c1ccc(-c2cccs2)s1)c1n[nH]c(=O)c2c1cnn2-c1ccccc1`: the CC50 at 48 h in data set [1] was below 1 µM; in data set [5], 114 µM. The “Ratio CC50/IC50” value in data set [2] amounted to 10.6. For the same compound, the concentration for half-maximal inhibition (IC50) in data set [3] was 10.8 µM; in data set [4], above 100 µM.

With `O=C(N/N=C/c1ccc(-c2cccs2)s1)c1nn(-c2ccccc2)c(=O)c2c1cnn2-c1ccccc1`, the “Ratio CC50/IC50” value in data set [6] was above 82.48; in data set [2], above 52.71; in data set [7] it was 33.38; in data set [8] it was 21.33. Also, the cytotoxic concentration (CC50) at 48 h is 77.4 µM in data set [1] and above 191 µM in data set [5]. The IC50 in data set [3] stood at 3.63 µM; in data set [4], 2.32 µM.

In data set [3], `O=C(N/N=C/c1cccs1)c1n[nH]c(=O)c2c1cnn2-c1ccccc1` registered an IC50 above 100 µM.

Regarding `O=C(N/N=C/c1cccs1)c1n[nH]c(=O)c2[nH]ncc12`, the IC50 in data set [3] was above 100 µM.

Consider `C[C@@H]1[C@H](O)[C@@H](C)/C=C/C=C/C=C/C=C/C=C/C=C/C=C/[C@H](O[C@@H]2O[C@H](C)[C@@H](O)[C@H](N)[C@@H]2O)C[C@@H]2O[C@](O)(C[C@@H](O)C[C@@H](O)[C@H](O)CC[C@@H](O)C[C@@H](O)CC(=O)O[C@H]1C)C[C@H](O)[C@H]2C(=O)O` [AMPHOTERICIN B], for which the cytotoxic concentration (CC50) at 48 h was determined as 79.1 µM in data set [1] and 16.8 µM in data set [5]. For the same compound, the “Ratio CC50/IC50” value in data set [2] was determined as 26.25; in data set [8] it was 123.64. Moreover, the IC50 in data set [3] was 0.64 µM.

`NNC(=O)c1n[nH]c(=O)c2[nH]ncc12` gave an IC50 in data set [3] above 100 µM.

With `O=C(N/N=C/c1ccc(-c2cccs2)s1)c1n[nH]c(=O)c2c1cnn2-c1ccc(Cl)cc1`, in data set [3], the IC50 is above 100 µM.

As for `CN(/N=C/c1ccc(-c2cccs2)s1)C(=O)c1nn(-c2ccccc2)c(=O)c2c1cnn2-c1ccccc1`, in data set [3], the IC50 is above 100 µM.

Consider `NNC(=O)c1n[nH]c(=O)c2c1cnn2-c1ccc(Cl)cc1`, for which the IC50 in data set [3] is above 100 µM.

Compound `O=C(N/N=C/c1cccs1)c1nn(-c2ccc(Cl)cc2)c(=O)c2c1cnn2-c1ccc(Cl)cc1` had an IC50 in data set [3] above 100 µM.

`O=C(N/N=C/c1ccc(-c2cccs2)s1)c1n[nH]c(=O)c2[nH]ncc12`: the IC50 in data set [3] was above 100 µM.

Regarding `O=C(N/N=C/c1cccs1)c1nn(-c2ccccc2)c(=O)c2c1cnn2-c1ccccc1`, the “Ratio CC50/IC50” value in data set [6] was 3.25; in data set [2], 1.25; in data set [7] it was 5.68; in data set [8] it was 2.19. For the same compound, the CC50 at 48 h in data set [1] was 186 µM; in data set [5], 106 µM. Moreover, the IC50 in data set [3] came out at 85 µM; in data set [4] it was 32.7 µM.

In data set [3], `NNC(=O)c1nn(-c2ccccc2)c(=O)c2c1cnn2-c1ccc(Cl)cc1` displayed an IC50 above 100 µM.

`O=C(N/N=C/c1cccs1)c1n[nH]c(=O)c2c1cnn2-c1ccc(Cl)cc1` came in with a half-maximal inhibitory concentration (IC50) in data set [3] above 100 µM.

In data set [3], `O=C(N/N=C/c1cccs1)c1nn(-c2ccccc2)c(=O)c2c1cnn2-c1ccc(Cl)cc1` showed an IC50 above 100 µM.

Regarding `O=C(N/N=C/c1cccs1)c1nn(-c2ccc(Cl)cc2)c(=O)c2c1cnn2-c1ccccc1`, the IC50 in data set [3] was above 100 µM.

Consider `O=C(N/N=C/c1ccc(-c2cccs2)s1)c1nn(-c2ccc(Cl)cc2)c(=O)c2c1cnn2-c1ccccc1`, for which the IC50 in data set [3] is above 100 µM.

The compound `NNC(=O)c1nn(-c2ccc(Cl)cc2)c(=O)c2c1cnn2-c1ccccc1` registered an IC50 in data set [3] above 100 µM.

As for `NNC(=O)c1n[nH]c(=O)c2c1cnn2-c1ccccc1`, the IC50 in data set [3] was above 100 µM.

`O=C(N/N=C/c1ccc(-c2cccs2)s1)c1nn(-c2ccc(Cl)cc2)c(=O)c2c1cnn2-c1ccc(Cl)cc1`: the IC50 in data set [3] was above 100 µM.

For `NNC(=O)c1nn(-c2ccccc2)c(=O)c2c1cnn2-c1ccccc1`, the IC50 in data set [3] is above 100 µM.

`O=C(N/N=C/c1ccc(-c2cccs2)s1)c1nn(-c2ccccc2)c(=O)c2c1cnn2-c1ccc(Cl)cc1` returned an IC50 in data set [3] above 100 µM.

As for `NNC(=O)c1nn(-c2ccc(Cl)cc2)c(=O)c2c1cnn2-c1ccc(Cl)cc1`, the IC50 in data set [3] was above 100 µM.

For orientation: CC50 means the concentration giving 50% cytotoxicity. Usually IC50 stands for the concentration at which inhibition is half-maximal.

Source of the values: ChEMBL document CHEMBL3875152, “Synthesis and evaluation against Leishmania amazonensis of novel pyrazolo[3,4-d]pyridazinone-N-acylhydrazone-(bi)thiophene hybrids” (Eur J Med Chem, 2016).
